Measurements reported in PMC10477861, “Efficient Mining of Anticancer Peptides from Gut Metagenome” (Advanced Science, 2023).

Assays:
Settings in all cases: 25 µM pACP, 24 h, maintenance medium 1% FBS, ratio of viability to vehicle (PBS), at least three technical repetitions
HT29 = assay: MTT primary screening of anticancer activity, HT29; assay type: cell-based, Human
In short: (§1)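 Primary screen at one c[…]ntration, 25 µM final. Treatment lasted 24 h in medium with 1% FBS, starting at 60% confluence, followed by MTT viability measurement.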

SK-BR-3 = assay: MTT primary screening of anticancer activity, SK-BR-3; assay type: cell-based
In short: as §1

MCF7 = assay: MTT primary screening of anticancer activity, MCF7; assay type: cell-based
In short: as §1

EFM192A = assay: MTT primary screening of anticancer activity, EFM192A; assay type: cell-based
In short: as §1

T47D = assay: MTT primary screening of anticancer activity, T47D; assay type: cell-based
In short: as §1

MDA-MB-468 = assay: MTT primary screening of anticancer activity, MDA-MB-468; assay type: cell-based
In short: as §1

BT474 = assay: MTT primary screening of anticancer activity, BT474; assay type: cell-based
In short: as §1

HCT116 = assay: MTT primary screening of anticancer activity, HCT116; assay type: cell-based, Human
In short: as §1

Hela = assay: MTT primary screening of anticancer activity, Hela; assay type: cell-based, Human
In short: as §1

MDA-MB-453 = assay: MTT primary screening of anticancer activity, MDA-MB-453; assay type: cell-based
In short: as §1

MDA-MB-231 = assay: MTT primary screening of anticancer activity, MDA-MB-231; assay type: cell-based
In short: as §1

B16 = assay: MTT primary screening of anticancer activity, B16; assay type: cell-based, Mouse
In short: as §1

LCC = assay: MTT primary screening of anticancer activity, LCC; assay type: cell-based
In short: as §1

Caco2 = assay: MTT primary screening of anticancer activity, Caco2; assay type: cell-based, Human
In short: as §1

MDA-MB-436 = assay: MTT primary screening of anticancer activity, MDA-MB-436; assay type: cell-based
In short: as §1

CT26 = assay: MTT primary screening of anticancer activity, CT26; assay type: cell-based, Murine
In short: as §1

Sequence	Survival rate of cancer cells in primary screening (HT29)	Survival rate of cancer cells in primary screening (SK-BR-3)	Survival rate of cancer cells in primary screening (MCF7)	Survival rate of cancer cells in primary screening (EFM192A)	Survival rate of cancer cells in primary screening (T47D)	Survival rate of cancer cells in primary screening (MDA-MB-468)	Survival rate of cancer cells in primary screening (BT474)	Survival rate of cancer cells in primary screening (HCT116)	Survival rate of cancer cells in primary screening (Hela)	Survival rate of cancer cells in primary screening (MDA-MB-453)	Survival rate of cancer cells in primary screening (MDA-MB-231)	Survival rate of cancer cells in primary screening (B16)	Survival rate of cancer cells in primary screening (LCC)	Survival rate of cancer cells in primary screening (Caco2)	Survival rate of cancer cells in primary screening (MDA-MB-436)	Survival rate of cancer cells in primary screening (CT26)
RLIVRMKTLYEKAAQMEIKIVENRFTRHEKKNKINRIKRKREK [pACP1722]	0.63	0.63	0.31	1.00	0.29	1.00	0.14	1.00	0.13	0.11	1.00	0.56	1.00	0.70	0.27	0.35
RLRPVILCKKRRLAAGRKKVGRQKKRKASAEGKEGRSPKKKKDGCW [pACP1739]	1.00	0.53	0.28	1.00	0.40	0.39	0.21	1.00	0.16	0.18	1.00	1.00	1.00	1.00	0.51	1.00
RPITNVGGFLEVNGKGVKPLHGNKFKCTVSGSFLASGWFTLELERVL [pACP1757]	1.00	1.00	1.00	1.00	0.76	1.00	1.00	1.00	1.00	1.00	1.00	0.79	1.00	1.00	1.00	1.00
RVYKFVDMIGEIGHGRENHIGSGFDERLCRNGACVDCYGKYLCCRTGDYP [pACP1836]	0.77	1.00	1.00	1.00	1.00	0.70	1.00	0.79	1.00	1.00	1.00	1.00	1.00	1.00	1.00	1.00
SCRNGKGISSGDRPGKAKTGISLEIGKCSYRNKGKSAENSSVAVV [pACP1869]	1.00	1.00	1.00	1.00	0.68	1.00	1.00	1.00	1.00	1.00	1.00	0.79	1.00	1.00	1.00	1.00
SPLKGGGLLPPAGFCPRRVLCRLPTGWKKGKPSGQMPLFRIWRKVMVMK [pACP1985]	1.00	0.24	0.19	0.07	0.15	0.31	0.05	1.00	0.0132	0.08	0.10	0.79	1.00	1.00	0.0378	0.77
SVGKRCKMGKNYKTVPALKGIPLAGGTYNTRNRSGSG [pACP2037]	1.00	1.00	1.00	1.00	0.74	1.00	1.00	1.00	1.00	1.00	1.00	0.78	1.00	1.00	1.00	1.00
VAHGLDLLDGVVAEGVAAKGDDNTIGLAKRLRHCWNPFCKRPTTH [pACP2160]	1.00	1.00	1.00	1.00	0.79	0.70	1.00	1.00	1.00	1.00	1.00	0.80	1.00	1.00	1.00	1.00
YCIFFLDKGFPGILADFLCLAGKRTIKLKALKQLIRQQVY [pACP2286]	1.00	1.00	0.76	1.00	0.63	1.00	0.72	1.00	1.00	1.00	1.00	0.77	1.00	1.00	1.00	1.00
YRKCDTAGGLSKLCVAEKDIKIIWKYGGR [pACP2334]	1.00	1.00	1.00	1.00	0.78	1.00	1.00	1.00	1.00	1.00	1.00	0.76	1.00	1.00	1.00	1.00
